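Dose response: 5 concentrations. Exposure: 48 h. Format: 96-well plates. Endpoint: linear interpolation; highest concentration if not reached. At the TGI there is no net growth.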
Assays:
Assay in all cases: inhibition of tumour cell growth, NCI panel, 48 h
[1] = test system: HCC-2998 colon
[2] = test system: NCI/ADR-RES ovarian
[3] = test system: SK-MEL-2 melanoma
[4] = test system: SR leukemia
[5] = test system: K-562 leukemia
[6] = test system: MCF7 breast
[7] = test system: OVCAR-8 ovarian
[8] = test system: OVCAR-3 ovarian
[9] = test system: CCRF-CEM leukemia
[10] = test system: A498 renal
[11] = test system: SK-MEL-5 melanoma
[12] = test system: T-47D breast
[13] = test system: MDA-N
[14] = test system: SN12C renal
[15] = test system: M14 melanoma
[16] = test system: OVCAR-4 ovarian
[17] = test system: MDA-MB-231 breast
[18] = test system: DU-145 prostate
[19] = test system: SNB-75 CNS

Structure (SMILES) | TGI [1] | TGI [2] | TGI [3] | TGI [4] | TGI [5] | TGI [6] | TGI [7] | TGI [8] | TGI [9] | TGI [10] | TGI [11] | TGI [12] | TGI [13] | TGI [14] | TGI [15] | TGI [16] | TGI [17] | TGI [18] | TGI [19]
O=[N+]([O-])C(=C(N1CCCCC1)N1CCCCC1)/C(Cl)=C(\Cl)[N+](=O)[O-] | 55.6 µM | 50.7 µM | 35.1 µM | > 100 µM | > 100 µM | 7.06 µM | 23.2 µM | 10.7 µM | > 31.3 µM | 32.1 µM | 11 µM | 3.88 µM | 13.3 µM | 4.8 µM | 21.7 µM | 22.8 µM | 14.8 µM | 7.72 µM | 32.9 µM
O=[N+]([O-])c1ccc(N/N=C(\c2ccccc2)c2ccccn2)nc1 | > 59.6 µM | 2.02 µM | > 94.9 µM | > 83.7 µM | > 100 µM | 8.45 µM | 23.8 µM | 23.3 µM | > 91.5 µM | > 100 µM | 26.5 µM | 26.9 µM | > 100 µM | > 68.9 µM | 13.8 µM | > 100 µM | 61.7 µM | 36.8 µM | 28.4 µM
CC1OC(OC2C(CO)OC(O[C@H]3CC[C@@]4(C)C(=CC[C@H]5[C@@H]6C[C@@H]7O[C@](O)(CC[C@H](CO)COC8OC(CO)C(O)C(O)C8O)[C@@H](C)[C@@H]7[C@@]6(C)CC[C@@H]54)C3)C(OC3OC(C)C(O)C(O)C3O)C2O)C(O)C(O)C1O (stereo not given in full) | > 100 µM | > 100 µM | > 100 µM | > 100 µM | > 100 µM | > 100 µM | > 100 µM | > 100 µM | > 100 µM | > 100 µM | > 100 µM | > 100 µM | > 100 µM | > 100 µM | > 100 µM | > 100 µM | > 100 µM | > 100 µM | > 100 µM
O=C1N=NC(=O)N1c1cc(C(F)(F)F)cc(C(F)(F)F)c1 | 14.7 µM | 11.5 µM | 5.57 µM | > 53.1 µM | 32.9 µM | > 32.4 µM | 13.7 µM | > 23 µM | > 45 µM | 25.4 µM | 7.62 µM | > 30.2 µM | 20.4 µM | 13.8 µM | 24.3 µM | 27.5 µM | 6.55 µM | > 40 µM | 11.7 µM
Cc1ccc2c(c1)C(C1Cc3cccc(C)c3C1=O)OC2=O (stereo not given) | > 100 µM | > 100 µM | > 100 µM | > 100 µM | > 100 µM | > 100 µM | > 100 µM | > 100 µM | > 100 µM | > 100 µM | > 100 µM | > 100 µM | > 100 µM | > 100 µM | > 100 µM | > 100 µM | > 100 µM | > 100 µM | > 100 µM
CCOC(=O)c1[nH]cc(C)c1-c1c[nH]c2ccccc12 | > 100 µM | 72.5 µM | > 93 µM | > 39.4 µM | > 80.4 µM | > 60.8 µM | > 100 µM | > 76.8 µM | > 78.1 µM | > 100 µM | 34.5 µM | > 100 µM | > 83.8 µM | > 100 µM | > 100 µM | > 100 µM | > 58.9 µM | > 100 µM | 90.7 µM
C=C(C)[C@@H]1CCC2=C[C@H](OC2=O)[C@@]2(C)C[C@@H]2C(=O)/C=C(/C)C(=O)[C@H]1OC(C)=O | 43 µM | > 100 µM | > 80.1 µM | > 37.8 µM | > 32.2 µM | > 37.6 µM | > 68.6 µM | > 50.8 µM | > 25.2 µM | 57.8 µM | 29.7 µM | 26.1 µM | > 35.8 µM | > 56.9 µM | > 100 µM | > 63.6 µM | > 100 µM | 21 µM | > 83.5 µM
C=C(C)[C@H]1C[C@@H]2O[C@@](O)(/C(C)=C\C(=O)/C=C(/C)C[C@H]3OC(=O)[C@@]24O[C@H]34)[C@@H]1O | > 100 µM | > 100 µM | > 100 µM | > 100 µM | > 100 µM | > 100 µM | > 100 µM | > 100 µM | > 100 µM | > 100 µM | > 100 µM | > 100 µM | > 100 µM | > 100 µM | > 100 µM | > 100 µM | > 100 µM | > 100 µM | > 100 µM
CCOC(=O)N1CCN(c2nc(C)n(-c3ccccc3)c(=S)c2C#N)CC1 | > 100 µM | > 100 µM | > 100 µM | > 100 µM | > 100 µM | > 100 µM | > 100 µM | > 100 µM | > 62.6 µM | > 100 µM | > 100 µM | > 100 µM | > 72.2 µM | > 100 µM | > 100 µM | > 100 µM | > 84.3 µM | > 100 µM | > 79.7 µM
NC(=NCCN1CCCCCCC1)NO | > 100 µM | > 100 µM | > 100 µM | > 100 µM | > 100 µM | > 100 µM | > 100 µM | > 100 µM | > 100 µM | > 100 µM | > 100 µM | > 100 µM | > 100 µM | > 100 µM | > 100 µM | > 100 µM | > 100 µM | > 100 µM | > 100 µM

Source: PubChem BioAssay (NCI)
